Results on five molecules are retold here after patent US5516651A, “Nucleic acids encoding calcitonin receptor and uses thereof” (The General Hospital Corporation, priority 1991, dated 1996).

For one data set, the system named is BIN-67 cells. The data set is described as follows: cAMP assay in BIN-67 cells. The data set is classed as cell-based, human. The following applies: read-out: 50% maximal effective concentration (EC50) for cAMP increase. Here is the method:
(§1) BIN-67 cells or COS-M6 cells were grown in 10 cm petri dishes. Forty eight hours before the cAMP assay, the COS-M6 cells were transfected with either human CTR cDNA, or with β-galactosidase cDNA which served as a control. After 24 hours, the transfected COS-M6 cells and the BIN-67 cells were trypsinized and transferred to plastic trays containing 24 16 mm wells (Falcon) at an initial plating density of 5×10^4 cells/well. To test for hormone-induced cAMP responses, the medium was removed from each well and the cells were washed with PBS supplemented with calcium and magnesium. Triplicate groups of cells were incubated for 20 minutes at 37° C. at room temperature with either test buffer [PBS supplemented with calcium, magnesium, 0.25% bovine serum albumin, 11 mM glucose and 1 mM 3-isobutyl-methyl-xanthine (IBMX)], or with 4 mM isoproterenol or peptide hormone at the appropriate concentrations. Reactions were stopped by placing the culture plates in a water bath at 100° C. until all liquid had evaporated. The plates were stored at -20° C. until assayed. The cAMP assay was performed by adding 1.0 ml of 50 mM sodium acetate buffer, pH 6.2, to each well. Dried cells were scraped into this buffer, transferred to glass tubes and centrifuged at 500×g for 10 minutes. […]
A general note: Changes in cAMP serve as a functional read-out for many G protein-coupled receptors.

Data set [1] concerns the target T1, calcitonin binding sites of BIN-67 cells (Homo sapiens, UniProt P30988).
T1 construct: native BIN-67 cells (0.42 nM); endogenous in cells; host or cells: BIN-67 (human ovarian small cell carcinoma)
T1 sequence (P30988 25-490 isoform P30988-1 limits assumed): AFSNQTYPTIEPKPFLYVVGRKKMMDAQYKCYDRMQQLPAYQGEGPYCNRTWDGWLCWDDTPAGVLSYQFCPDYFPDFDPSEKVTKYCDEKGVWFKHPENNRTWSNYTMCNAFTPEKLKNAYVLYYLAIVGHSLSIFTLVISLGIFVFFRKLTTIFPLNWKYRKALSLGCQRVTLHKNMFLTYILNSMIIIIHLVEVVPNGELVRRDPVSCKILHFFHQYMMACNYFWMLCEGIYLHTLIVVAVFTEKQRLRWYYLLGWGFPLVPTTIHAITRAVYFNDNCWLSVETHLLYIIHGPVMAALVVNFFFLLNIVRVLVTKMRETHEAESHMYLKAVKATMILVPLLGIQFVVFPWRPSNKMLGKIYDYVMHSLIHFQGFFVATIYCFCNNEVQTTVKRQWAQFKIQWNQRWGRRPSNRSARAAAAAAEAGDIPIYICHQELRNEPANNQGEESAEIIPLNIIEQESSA
The experiment in a line: Radioligand binding of salmon and human calcitonin to BIN-67 cells. As to conditions: for displacement of radiolabeled salmon or human calcitonin binding: concentrations as high as 10^-5 M. The procedure: (§2) Human small ovarian cell carcinoma cells (BIN-67) were grown in 10 cm petri dishes in Dulbecco's modified Eagle's medium (DMEM) supplemented with 20% (vol/vol) heat inactivated fetal calf serum (GIBCO) and enriched with 25% Ham's F12 medium (GIBCO). Cells at near confluency, were passed approximately twice a week by trypsinization using 0.25% trypsin (GIBCO). Radioligand binding assays were performed in triplicate as follows. The cells were washed, trypsinized and counted in an automated cell counter (Coulter, Hialeah, Fla.). […] The mixture was incubated for 14-16 hours at 4° C. The cells were washed by layering 100 μl of cell suspension over 400 μl of 10% sucrose (wt/vol) in a mini-microfuge tube (Bio-Rad) and centrifuging at maximum speed in a microfuge for three minutes to pellet the cells. The supernatant was removed by aspiration, and the portion of the tube containing the cell pellet was cut off and assayed for radioactive content in a gamma counter (TM Analytic, Elk Grove Village, Ill.). Ligand binding to COS-M6 cells transfected with a human CTR-containing plasmid was performed using the same technique.

Data set [2] concerns the target T2, porcine calcitonin receptor (CTR) (Sus scrofa, UniProt P25117).
T2 construct: expressed in transfected cells; host or cells: COS cells
T2 sequence (P25117 30-482 isoform P25117-2 K186L): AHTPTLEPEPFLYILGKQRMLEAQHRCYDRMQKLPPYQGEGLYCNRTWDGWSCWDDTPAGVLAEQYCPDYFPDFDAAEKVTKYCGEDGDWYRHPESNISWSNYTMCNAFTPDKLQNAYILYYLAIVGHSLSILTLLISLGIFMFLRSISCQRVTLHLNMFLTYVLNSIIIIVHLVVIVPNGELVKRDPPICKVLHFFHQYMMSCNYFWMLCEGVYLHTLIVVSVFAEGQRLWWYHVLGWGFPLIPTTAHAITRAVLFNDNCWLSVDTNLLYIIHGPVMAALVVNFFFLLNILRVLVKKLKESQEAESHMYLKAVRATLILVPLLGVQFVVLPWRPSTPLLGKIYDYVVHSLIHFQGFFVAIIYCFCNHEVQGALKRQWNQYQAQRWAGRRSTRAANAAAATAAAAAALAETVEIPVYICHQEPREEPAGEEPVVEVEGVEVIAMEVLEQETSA
The data set is described as follows: Radioiodinated salmon calcitonin binding to COS cells transfected with porcine CTR cDNA. From the text: (§3) Radioiodinated salmon calcitonin binds to LLC-PK1 cells and to COS cells transfected with the cloned porcine calcitonin receptor (CTR) cDNA (FIGS. 1A and 1B). […] Bovine parathyroid hormone (1-34) [PTH(1-34)]

Data set [3] has as its target T3, human CTR (Homo sapiens, UniProt P30988, L447P/S166F).
T3 construct: expressed in transfected cells; host or cells: COS-M6 (COS-7 subclone)
T3 sequence (P30988 25-490 isoform P30988-1 S166F/L463P): T1 sequence (P30988 25-490 isoform P30988-1 limits assumed) with S142F, L439P
The data set is described as follows: cAMP assay in COS-M6 cells transfected with human CTR cDNA. The data set is classed as cell-based. The procedure: Plasmid DNA was used to transfect COS-M6 cells growing in 10 cm petri dishes (Falcon, Lincoln Park, N.J.) using the DEAE-dextran/chloroquine procedure (Seed and Aruffo, 1987, Proc. Natl. Acad. Sci. USA 84:3365). Forty-eight hours after transfection, cells were incubated in the presence of either iodinated calcitonin for ligand binding studies, or unlabeled calcitonin for the assay of intracellular cAMP.
(§4) BIN-67 cells or COS-M6 cells were grown in 10 cm petri dishes. Forty eight hours before the cAMP assay, the COS-M6 cells were transfected with either human CTR cDNA, or with β-galactosidase cDNA which served as a control. After 24 hours, the transfected COS-M6 cells and the BIN-67 cells were trypsinized and transferred to plastic trays containing 24 16 mm wells (Falcon) at an initial plating density of 5×10^4 cells/well. To test for hormone-induced cAMP responses, the medium was removed from each well and the cells were washed with PBS supplemented with calcium and magnesium. Triplicate groups of cells were incubated for 20 minutes at 37° C. at room temperature with either test buffer [PBS supplemented with calcium, magnesium, 0.25% bovine serum albumin, 11 mM glucose and 1 mM 3-isobutyl-methyl-xanthine (IBMX)], or with 4 mM isoproterenol or peptide hormone at the appropriate concentrations. Reactions were stopped by placing the culture plates in a water bath at 100° C. until all liquid had evaporated. The plates were stored at -20° C. until assayed. The cAMP assay was performed by adding 1.0 ml of 50 mM sodium acetate buffer, pH 6.2, to each well. Dried cells were scraped into this buffer, transferred to glass tubes and centrifuged at 500×g for 10 minutes. Aliquots of supernatant were assayed for cAMP using a radioimmunoassay kit (New England Nuclear/Dupont cAMP [^125 I] Radioimmunoassay Kit, Dupont).

Data set [4] concerns the target T3, human CTR. The data set is described as follows: Radioligand binding to COS-M6 cells transfected with human CTR cDNA. As to conditions: for competition for binding with radioiodinated salmon or human calcitonin: COS cells transfected with human CTR cDNA. Here is the method:
as §2

The target in data set [5] is T2, porcine calcitonin receptor (CTR). Format: cell-based. Here is the method:
(§5) The cloned porcine receptor is functionally coupled to increased intracellular cAMP (FIGS. 2A and 2B). A 4-fold increase in the concentration of intracellular cAMP was observed after incubation of porcine CTR-transfected COS cells with calcitonin, but there was no increase when cells were transfected with β-galactosidase and subsequently stimulated with calcitonin.
as §1, with “evaporated.” for “evaporated. The plates were stored at -20° C. until assayed. The cAMP assay was performed by adding 1.0 ml of 50 mM sodium acetate buffer, pH 6.2, to each well. Dried cells were scraped into this buffer, transferred to glass tubes and centrifuged at 500×g for 10 minutes.”

In data set [6] the test system is β-galactosidase transfected COS cells. The experiment in a line: cAMP response in mock (β-galactosidase) transfected COS cells. Format: cell-based. As to conditions: for activation of adenylate cyclase / increase of cAMP levels: β-galactosidase (mock) transfected COS cells; for increase in cAMP after stimulation with calcitonin: COS cells transfected with β-galactosidase. The procedure:
as §5, §4

Data set [7] deals with T4, calcitonin receptors of BIN-67 cells (Homo sapiens, UniProt P30988).
T4 construct: native BIN-67 cells (0.42 nM); endogenous in cells; host or cells: BIN-67 (human ovarian small cell carcinoma)
T4 sequence (P30988 25-490 isoform P30988-1 limits assumed): T1 sequence (P30988 25-490 isoform P30988-1 limits assumed)
The data set is described as follows: Emulsion autoradiography of BIN-67 cells with [125I]-salmon calcitonin. Format: binding. The procedure: Cells were grown on glass chamber slides (Nunc, Kamstrup, DK). The medium was removed by aspiration and the cells were incubated in binding buffer (PBS supplemented with 11 mM glucose, 0.5% bovine serum albumin) with [^125 I]-salmon calcitonin (200 pM) with or without 10^-6 M unlabeled salmon calcitonin (Sigma). After 5 washes in ice cold PBS supplemented with calcium and magnesium, the cells were fixed in PBS plus 2% formaldehyde, coated with Kodak NTB2 emulsion and exposed for 1-3 weeks at 4° C., after which they were developed and counterstained with Giemsa.

Data set [8] has as its target T5, calcitonin receptors of LLC-PK1 cells (Sus scrofa, UniProt P25117).
T5 construct: endogenous in cells; host or cells: LLC-PK1
T5 sequence (P25117 30-482 isoform P25117-2 limits assumed): T2 sequence (P25117 30-482 isoform P25117-2 K186L) with L157K
The data set is described as follows: Radioiodinated calcitonin binding to LLC-PK1 cells (Scatchard). On the set-up: species or system porcine. The following applies: FIG. 1A, read-out: apparent dissociation constant (Kd).
From the text: The porcine calcitonin receptor was cloned by expression in COS cells, using a strategy generally described in Lin et al., 1991, Proc. Natl. Acad. Sci. USA 88:3185. […] Pools of mini-prep cDNA (Sambrook et al., 1989, Molecular Cloning: A Laboratory Manual, Cold Spring Harbor Laboratory, N.Y.) containing 10^4 recombinants were transfected into COS cells and screened for binding to radioiodinated salmon calcitonin by emulsion autoradiography (Gearing et al., 1989, EMBO 8:3667). After screening 30 pools representing 3×10^5 clones, two positive pools were identified from which two positive clones with cDNA inserts 2.2 and 3.9 kb in length were isolated. The 2.2 kb clone (3JS-14-FI) was a truncated version of the 3.9 kb clone (2B5-0-I) but encoded the same open reading frame.
as §3

Residue numbers refer to the chain shown, from its start.

Regarding human calcitonin, the EC50 in the data set with BIN-67 cells is roughly 3 nM. For the same molecule, the maximal binding in [1] (human calcitonin binding to BIN-67 cells, FIG. 6C) is 1.92×10^4 cpm per sample.
For the molecule Bovine parathyroid hormone (1-34) [PTH], in data set [2] (porcine CTR transfectants), the “competition for binding of radioiodinated salmon calcitonin” value is “did not compete”. Further, in the data set with human CTR [3] (FIG. 7C), the cAMP response entry is “failure of PTH to induce a response”. The “displacement of radiolabeled salmon or human calcitonin binding” value in [1] (BIN-67 cells) is given as “failed to displace”. In the data set with human CTR [4], the “competition for binding with radioiodinated salmon or human calcitonin” value is listed as “failure of other hormones, including PTH or secretin, to compete for binding”.
As to `CC(C)NCC(O)c1ccc(O)c(O)c1` (stereo not drawn) [isoproterenol], in data set [5] (porcine CTR-transfected cells), the “activation of adenylate cyclase” value was “activated adenylate cyclase”. For the same molecule, at human CTR [3] (FIG. 7C), the cAMP response result is “increased cAMP levels”. The “activation of adenylate cyclase / increase of cAMP levels” value in data set [6] is on record as “increased cAMP levels”; in data set [6] (listed as Isoproterenol) it was “activated adenylate cyclase”.
In the case of secretin, in the data set with human CTR [3] (concentrations up to 10^-6 M), the cAMP response result is listed as “failed to induce a response”. Moreover, the “displacement of radiolabeled salmon or human calcitonin binding” value in data set [1] (BIN-67 cells) is recorded as “failed to displace”. Besides, the “competition for binding with radioiodinated salmon or human calcitonin” value with human CTR [4] is “failure of other hormones, including PTH or secretin, to compete for binding”.
For salmon calcitonin, the “competition of [125I]-salmon calcitonin label by excess unlabeled ligand” value in [7] was “competed out all of the label”. Moreover, in [5] (cos cells, 20 min), the “increase in concentration of intracellular cAMP” value is recorded as 4 fold. Further, the EC50 in the data set with BIN-67 cells is roughly 0.7 nM. Besides, the Kd in [2] (COS cells transfected with porcine CTR cDNA, FIG. 1B, read-out: apparent Kd) is roughly 6 nM; in data set [8] it was roughly 3 nM; in [1] (BIN-67 cells, radiolabeled ligand, 4° C., read-out: Kd (Scatchard analysis)), 0.42 nM; on human CTR [4] (COS-M6 cells transfected with HCTR-BIN67, read-out: apparent Kd (Scatchard analysis)), 0.44 nM. Besides, the “increase in cAMP levels” value on human CTR [3] (maximal stimulatory concentrations, 20 minutes, IBMX, FIG. 7C) is listed as roughly 4 fold. Also, the IC50 in [1] (read-out: apparent 50% inhibitory concentration (IC50), BIN-67 cells, [125I]human calcitonin competed with unlabeled ligand) lay in the range of 0.6 to 0.7 nM. Also, the “increase in cAMP after stimulation with calcitonin” value in data set [6] is “failed to increase cAMP levels above control levels”; in data set [6] (listed as calcitonin), “no increase”.
